Legend:
Type in all cases: cell-based
PPARγ = biological target: T1, PPARγ (Homo sapiens, UniProt P37231); test: Gal4-hybrid reporter gene assay PPARγ; settings: n ≥ 3; for fold act. PPARγ: mean, Fig. 8; for EC50: HEK293T, Gal4-hybrid reporter, Inactive = tested 1–300 μM; for EC50 / max. fold activation PPARγ: mean ± S.E.M.; for max. fold activation PPARγ: maximum reporter activation vs DMSO (0.1%) treated cells
T1 construct: expressed in transfected cells; host or cells: HEK293T
T1 sequence (P37231 238-503 limits assumed): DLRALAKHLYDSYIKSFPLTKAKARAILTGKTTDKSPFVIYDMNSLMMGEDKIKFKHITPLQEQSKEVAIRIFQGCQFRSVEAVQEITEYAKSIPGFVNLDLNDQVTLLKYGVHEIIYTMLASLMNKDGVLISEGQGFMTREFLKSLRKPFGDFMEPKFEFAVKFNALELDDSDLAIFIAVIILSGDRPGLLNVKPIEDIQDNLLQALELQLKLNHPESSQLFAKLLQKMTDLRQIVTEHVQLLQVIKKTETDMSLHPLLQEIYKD
Experimental: (§1) NR modulation was determined as described previously[45] in Gal4 hybrid reporter gene assays in HEK293T cells (German Collection of Microorganisms and Cell Culture GmbH, DSMZ) using pFR-Luc (Stratagene, La Jolla, CA, USA; reporter), pRL-SV40 (Promega, Madison, WI, USA; internal control) and the hybrid receptor clones pFA-CMV-hTHRα-LBD,[46] pFA-CMV-hPPARγ-LBD,[47] pFA-CMV-hFXR-LBD,[48] and pFA-CMV-hRXRα-LBD,[49] coding for the hinge region and ligand binding domain of the canonical isoform of the respective NR. Cells were cultured in Dulbecco's modified Eagle's medium (DMEM), high glucose supplemented with 10% fetal calf serum (FCS), sodium pyruvate (1 mM), penicillin (100 U mL^−1), and streptomycin (100 μg mL^−1) at 37 °C and 5% CO2 and seeded in 96-well plates (3 × 10^4 cells per well). After 24 h, medium was changed to Opti-MEM without supplements and cells were transiently transfected using Lipofectamine LTX reagent (Invitrogen, Carlsbad, CA, USA) according to the manufacturer's protocol. Five hours after transfection, cells were incubated with the test compounds in Opti-MEM supplemented with penicillin (100 U mL^−1), streptomycin (100 μg mL^−1) and 0.1% DMSO for 16 h before luciferase activity was measured using the Dual-Glo Luciferase Assay System (Promega) according to the manufacturer's protocol on a Tecan Spark luminometer (Tecan Deutschland GmbH, Crailsheim, Germany). Firefly luminescence was divided by Renilla luminescence and multiplied by 1000 resulting in relative light units (RLU) to normalize for transfection efficiency and cell growth. Fold activation was obtained by dividing the mean RLU of test compound by the mean RLU of the untreated control. All samples were tested in at least three biologically independent experiments in duplicates. For dose–response curve fitting and calculation of EC50 values, the equation “[agonist] vs. response − variable slope (four parameters)” was used in GraphPad Prism (version 7.00, GraphPad Software, La Jolla, CA, USA). For selectivity profiling, the hybrid reporter gene assay was performed with Gal4 fusion receptor plasmids for RARα, PPARα, PPARδ, VDR, CAR and LXRα. The following reference agonists were used: triiodothyronine (1 μM, THR), all-trans retinoic acid (1 μM, RAR), GW7647 (1 μM, PPARα), pioglitazone (1 μM, PPARγ), L165041 (1 μM, PPARδ), calcitriol (1 μM, VDR), CITCO (1 μM, CAR), T0901317 (1 μM, LXR), GW4064 (1 μM, FXR), bexarotene (1 μM, RXR).

RXRα = biological target: T2, RXRα (Homo sapiens, UniProt P19793); test: Gal4-hybrid reporter gene assay RXRα; settings: n ≥ 3; for fold act. RXRα: mean, Fig. 8; for EC50 / EC50 RXRα: HEK293T, Gal4-hybrid reporter, Inactive = tested 1–300 μM; for EC50 / max. fold activation RXRα / EC50 RXRα: mean ± S.E.M.; for max. fold activation RXRα: maximum reporter activation vs DMSO (0.1%) treated cells
T2 construct: expressed in transfected cells; host or cells: HEK293T
T2 sequence (P19793 227-458 limits assumed): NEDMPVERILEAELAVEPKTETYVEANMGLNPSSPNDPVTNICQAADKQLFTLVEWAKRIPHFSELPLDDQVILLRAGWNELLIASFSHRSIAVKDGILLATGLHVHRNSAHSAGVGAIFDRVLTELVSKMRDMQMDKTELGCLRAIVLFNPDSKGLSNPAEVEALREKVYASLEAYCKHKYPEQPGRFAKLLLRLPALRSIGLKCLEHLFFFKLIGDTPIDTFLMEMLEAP
Experimental: as §1

RARα = biological target: T3, RARα (Homo sapiens, UniProt P10276); test: Gal4-hybrid reporter gene assay RARα (selectivity); settings: mean, n ≥ 3, Fig. 8
T3 construct: expressed in transfected cells; host or cells: HEK293T
T3 sequence (P10276 154-462 limits assumed): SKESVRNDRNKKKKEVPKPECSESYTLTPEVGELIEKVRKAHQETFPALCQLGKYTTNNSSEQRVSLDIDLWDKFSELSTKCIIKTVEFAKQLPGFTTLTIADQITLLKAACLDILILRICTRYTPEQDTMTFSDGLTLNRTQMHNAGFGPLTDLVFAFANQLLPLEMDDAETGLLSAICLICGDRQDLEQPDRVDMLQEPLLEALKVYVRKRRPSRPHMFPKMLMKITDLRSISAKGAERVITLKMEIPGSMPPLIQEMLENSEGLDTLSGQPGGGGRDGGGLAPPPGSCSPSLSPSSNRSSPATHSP
Experimental: as §1

VDR = biological target: T4, VDR (Homo sapiens, UniProt P11473); test: Gal4-hybrid reporter gene assay VDR (selectivity); settings: mean, n ≥ 3, Fig. 8
T4 construct: expressed in transfected cells; host or cells: HEK293T
T4 sequence (P11473 97-427 limits assumed): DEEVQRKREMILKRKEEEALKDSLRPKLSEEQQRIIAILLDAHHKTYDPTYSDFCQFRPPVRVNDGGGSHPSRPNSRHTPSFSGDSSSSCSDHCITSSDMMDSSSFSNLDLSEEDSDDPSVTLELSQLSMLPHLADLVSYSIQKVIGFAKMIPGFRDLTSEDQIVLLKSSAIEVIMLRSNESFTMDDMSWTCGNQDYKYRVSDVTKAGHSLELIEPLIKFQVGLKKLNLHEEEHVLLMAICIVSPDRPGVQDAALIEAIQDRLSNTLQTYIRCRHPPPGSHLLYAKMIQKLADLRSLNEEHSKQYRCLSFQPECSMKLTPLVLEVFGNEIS
Experimental: as §1

CAR = test: Gal4-hybrid reporter gene assay CAR (selectivity); settings: mean, n ≥ 3, Fig. 8
Experimental: as §1

Row | SMILES | fold act. PPARγ (PPARγ; 10 μM) [fold] | EC50 (PPARγ) [µM] | max. fold activation PPARγ (PPARγ) | fold act. RXRα (RXRα; 10 μM) [fold] | EC50 (RXRα) [µM] | max. fold activation RXRα (RXRα) | fold act. RARα (RARα; 10 μM) [fold] | fold act. VDR (VDR; 10 μM) [fold] | fold act. CAR (CAR; 10 μM) [fold] | fold act. PPARγ (PPARγ; 30 μM) [fold] | fold act. RXRα (RXRα; 30 μM) [fold] | EC50 RXRα (RXRα) | fold act. RARα (RARα; 30 μM) [fold] | fold act. VDR (VDR; 30 μM) [fold] | fold act. CAR (CAR; 30 μM) [fold] | fold act. PPARγ (PPARγ; 40 μM) [fold] | fold act. RXRα (RXRα; 40 μM) [fold] | fold act. RARα (RARα; 40 μM) [fold] | fold act. VDR (VDR; 40 μM) [fold] | fold act. CAR (CAR; 40 μM) [fold]
1 | CCOc1ccc(-c2cc(C(=O)O)co2)cc1 [3.1, 5-(4-Ethoxyphenyl)furan-3-carboxylic acid] | 6 | 3 ± 1 | (6.4 ± 0.6-fold) | 4 | 0.9 ± 0.2 | (4.3 ± 0.5-fold) | 6 | 3 | 3 |  |  |  |  |  |  |  |  |  |  | 
2 | O=C(O)/C=C/C(=O)c1ccc(Cl)cc1Cl [4.6, (E)-4-Oxo-4-(2,4-dichlorophenyl)but-2-enoic acid] |  | 20 ± 5 | (13 ± 2-fold) |  |  |  |  |  |  | 9 | 1 | Inactive | 1 | 1 | 1 |  |  |  |  | 
3 | O=C(O)/C=C/C(=O)c1ccc(-c2ccccc2)cc1 [4.7, (E)-4-([1,1′-Biphenyl]-4-yl)-4-oxobut-2-enoic acid] |  | 18 ± 4 | (33.4 ± 2.7-fold) |  |  |  |  |  |  | 32 | 1 | Inactive | 3 | 2 | 2 |  |  |  |  | 
4 | O=C(O)/C=C/C(=O)c1ccc2ccccc2c1 [4.8, (E)-4-Oxo-4-(naphthalen-2-yl)but-2-enoic acid] |  | 27 ± 1 | (16.7 ± 0.5-fold) |  | 26 ± 3 | (4.5 ± 0.5-fold) |  |  |  |  |  |  |  |  |  | 18 | 5 | 3 | 3 | 3

— article PMC12352620, “Fragment-based discovery of dual ligand pharmacophores for lipid-sensing transcription factors for designed polypharmacology” (RSC Medicinal Chemistry, 2025)
